Experiments:
Assay in all cases: in vitro antibacterial evaluation, MIC by broth dilution
Format in all cases: cell-based
Enterococcus sp. = conditions: broth dilution, 18 hours at 35° C.
How it was run: (§1)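 Step 1: dilute antibiotic across 64-0.06 μg/mL in Muller-Hinton II […]. Step 2: inoculate at 5×10^5 CFU/mL.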

Staphylococcus sp. = conditions: broth dilution, 18 hours at 35° C.
How it was run: as §1

Streptococcus sp. = conditions: broth dilution, 18 hours at 35° C.
How it was run: as §1

Escherichia coli = conditions: 18 hours at 35° C.
How it was run: as §1

CC(c1ccccc1)C1NC(=O)CNC(=O)C(CO)NC(=O)C(C(O)C2CNC(=N)N2C2OC(CO)C(O)C(O)C2O)NC(=O)C(C(O)C2CNC(=N)N2)NC(=O)C(Cc2ccc(OC3OC(CO)C(OC4OC5COC(CC6CCCCC6)OC5C(O)C4O)C(O)C3O)cc2)NC1=O (stereo not shown) [Example 122]
4 µg/mL: MIC Enterococcus faecalis (GC 4553) (Enterococcus sp.; Enterococcus faecalis (GC 4553)) | MIC Enterococcus faecium (GC 4557) (Enterococcus sp.; Enterococcus faecium (GC 4557)) | MIC Enterococcus faecalis (GC 4553) (Enterococcus sp.; strain GC 4553) | MIC Enterococcus faecium (GC 4557) (Enterococcus sp.; strain GC 4557)
<0.06 µg/mL: MIC Streptococcus pneumoniae (ATCC 6301) (Streptococcus sp.; Streptococcus pneumoniae (ATCC 6301)) | MIC Streptococcus pneumoniae (GC 1894) (Streptococcus sp.; Streptococcus pneumoniae (GC 1894)) | MIC Streptococcus pyogenes (GC 4563) (Streptococcus sp.; Streptococcus pyogenes (GC 4563)) | MIC Streptococcus pneumoniae (ATCC 6301) (Streptococcus sp.; strain ATCC 6301) | MIC Streptococcus pneumoniae (GC 1894) (Streptococcus sp.; strain GC 1894) | MIC Streptococcus pyogenes (GC 4563) (Streptococcus sp.; strain GC 4563)
1 µg/mL: MIC Staphylococcus aureus (GC 4544) (Staphylococcus sp.) | MIC Staphylococcus aureus (GC 4544) (Staphylococcus sp.; strain GC 4544) | MIC Coagulase Negative Staphylococcus (GC 4548) (Staphylococcus sp.; strain GC 4548) | MIC Coagulase Negative Staphylococcus (GC 4549) (Staphylococcus sp.; strain GC 4549) | MIC Coagulase Negative Staphylococcus (GC 6257) (Staphylococcus sp.; strain GC 6257)
0.12 µg/mL: MIC Streptococcus agalactiae (GC 4564) (Streptococcus sp.; Streptococcus agalactiae (GC 4564)) | MIC Streptococcus pneumoniae (GC 4565) (Streptococcus sp.; Streptococcus pneumoniae (GC 4565)) | MIC Streptococcus agalactiae (GC 4564) (Streptococcus sp.; strain GC 4564) | MIC Streptococcus pneumoniae (GC 4565) (Streptococcus sp.; strain GC 4565)
32 µg/mL: MIC Escherichia coli (ATCC 25922) (Escherichia coli; strain ATCC 25922) | MIC Escherichia coli (GC 4559) (Escherichia coli; strain GC 4559)
2 µg/mL: MIC Enterococcus avium (GC 4558) (Enterococcus sp.; Enterococcus avium (GC 4558)) | MIC Enterococcus faecalis (ATCC 29212) (Enterococcus sp.; Enterococcus faecalis (ATCC 29212)) | MIC Enterococcus faecalis (GC 2242) (Enterococcus sp.; Enterococcus faecalis (GC 2242)) | MIC Enterococcus faecalis (GC 2691) (Enterococcus sp.; Enterococcus faecalis (GC 2691)) | MIC Enterococcus faecalis (GC 3059) (Enterococcus sp.; Enterococcus faecalis (GC 3059)) | MIC Enterococcus faecalis (GC 4552) (Enterococcus sp.; Enterococcus faecalis (GC 4552)) | MIC Enterococcus faecalis (GC 4554) (Enterococcus sp.; Enterococcus faecalis (GC 4554)) | MIC Enterococcus faecalis (GC 6189) (Enterococcus sp.; Enterococcus faecalis (GC 6189)) | MIC Enterococcus faecium (GC 2243) (Enterococcus sp.; Enterococcus faecium (GC 2243)) | MIC Enterococcus faecium (GC 4556) (Enterococcus sp.; Enterococcus faecium (GC 4556)) | MIC Enterococcus faecalis (ATCC 29212) (Enterococcus sp.; strain ATCC 29212) | MIC Enterococcus faecalis (GC 2242) (Enterococcus sp.; strain GC 2242) | MIC Enterococcus faecium (GC 2243) (Enterococcus sp.; strain GC 2243) | MIC Enterococcus faecalis (GC 2691) (Enterococcus sp.; strain GC 2691) | MIC Enterococcus faecalis (GC 3059) (Enterococcus sp.; strain GC 3059) | MIC Enterococcus faecalis (GC 4552) (Enterococcus sp.; strain GC 4552) | MIC Enterococcus faecalis (GC 4554) (Enterococcus sp.; strain GC 4554) | MIC Enterococcus faecium (GC 4556) (Enterococcus sp.; strain GC 4556) | MIC Enterococcus avium (GC 4558) (Enterococcus sp.; strain GC 4558) | MIC Enterococcus faecalis (GC 6189) (Enterococcus sp.; strain GC 6189) | MIC Staphylococcus aureus (ATCC 29213) (Staphylococcus sp.) | MIC Staphylococcus aureus (GC 1131) (Staphylococcus sp.) | MIC Staphylococcus aureus (GC 3051) (Staphylococcus sp.) | MIC Staphylococcus aureus (GC 3053) (Staphylococcus sp.) | MIC Staphylococcus aureus (GC 4541) (Staphylococcus sp.) | MIC Staphylococcus aureus (GC 4542) (Staphylococcus sp.) | MIC Staphylococcus aureus (GC 4545) (Staphylococcus sp.) | MIC Staphylococcus aureus (GC 1131) (Staphylococcus sp.; inoculum 5×10^5 CFU/mL, strain GC 1131) | MIC Staphylococcus aureus (ATCC 29213) (Staphylococcus sp.; strain ATCC 29213) | MIC Staphylococcus aureus (GC 3051) (Staphylococcus sp.; strain GC 3051) | MIC Staphylococcus aureus (GC 3053) (Staphylococcus sp.; strain GC 3053) | MIC Staphylococcus aureus (GC 4541) (Staphylococcus sp.; strain GC 4541) | MIC Staphylococcus aureus (GC 4542) (Staphylococcus sp.; strain GC 4542) | MIC Staphylococcus aureus-SMITH (GC 4543) (Staphylococcus sp.; strain GC 4543) | MIC Staphylococcus aureus (GC 4545) (Staphylococcus sp.; strain GC 4545) | MIC Staphylococcus haemolyticus (GC 4546) (Staphylococcus sp.; strain GC 4546) | MIC Coagulase Negative Staphylococcus (GC 4547) (Staphylococcus sp.; strain GC 4547) | MIC Coagulase Negative Staphylococcus (GC 4551) (Staphylococcus sp.; strain GC 4551) | MIC Staphylococcus aureus-SMITH (GC 4543) (Staphylococcus sp.; strain SMITH GC 4543) | MIC Escherichia coli (GC 4560) (Escherichia coli; strain GC 4560)

From patent publication US6914045B2, “Glycopeptide antibiotics” (Wyeth Holdings Corporation, priority 2001, dated 2005)
